# Assays:
# [1] = test system: FIV-C (CABCpady00C); test: FIV-C infection of cats with oral TL-3 treatment (viral load, disease, survival); format: in vivo, cat
# Protocol: Twenty-two female specific pathogen-free (SPF) cats were randomly divided into five groups. Group 0 consisted of two cats, which received TL-3 treatment without viral infection and were considered controls. Group 1 (n = 5) received 0.1 ml (10^5 RNA copies/ml) of FIV-C-infected plasma I.V. with TL-3 drug treatment. Group 2 (n = 5) received 0.1 ml FIV-C-infected plasma without TL-3 treatment. Group 3 (n = 5) received 0.5 ml FIV-C-infected plasma with TL-3 and Group 4 (n = 5) received 0.5 ml FIV-C-infected plasma without TL-3 treatment. Blood (1 ml) was drawn from all cats prior to the start of the experiment, at weekly intervals for the first four weeks after infection, and at bi-monthly intervals from week 4 until the end of the study. Complete blood counts were assessed as a function of infection and TL-3 treatment. In addition, quantitative reverse transcription PCR (QRT-PCR) analyses were performed to assess plasma viral load. All animals were continuously observed for any changes in general health. No significant differences were noted between viral load or disease phenotype between the two plasma dosages used in infection and subsequent discussion will not distinguish between these two groups.
# Plasma samples (10^5 RNA copies/ml) from a cat, that had died from an acute infection with CABCpady00C (FIV-C), were kindly provided by Dr. E. Hoover, of Colorado State University. Cats were injected I.V. with either 0.1 ml (10^5 RNA copies/ml) or 0.5 ml of plasma.
# (§1) All procedures for care of cats during dosing as well as dosing procedures were mandated by TSRI's IACUC. Oral TL-3 (L-Iditol,1,2,5,6-tetradeoxy-1,6-diphenyl-2,5-bis [N-[(phenylmethoxy)carbonyl]-L-alanyl-L-valyl]amino]) treatment was initiated in 12 cats, three days prior to infection of ten of the twelve animals with FIV-C. All TL-3 treated animals received 20 mg TL-3 by capsules at eight hour intervals, for approx. the first 7.5 weeks of the experiment. Dosage was then doubled to 40 mg TL-3 per dose at eight hour intervals for an additional week for the two control animals and the eight surviving animals in the TL-3 treated, infected cohort.
# Animals were examined daily and in case of health concerns further therapy/diagnostics were initiated. Animals with abnormal weight, or on antibiotics were placed on supplemental feeding with moist food and Nutrical. Dehydrated animals received subcutaneous fluid therapy. More affected animals received supportive care and medications, consisting of BID administration of antibiotics (Baytril), BID subcutaneous fluid therapy, BID temperature evaluation, BID application of antibiotic ophthalmic ointment supportive care. Any animals that required extensive supportive care (TID fluid therapy, TID force feeding) were euthanized. Euthanasia of research animals was conducted with strict adherence to NIH Office of Laboratory Animal Welfare protocols.
# Plasma for weeks 0, 2, 4, 6 (terminal points for cats 215, 221, and 229), 6.5 (terminal points for cats 219, 220, and 234), and 8, were isolated from whole blood by centrifugation and stored at -20°C. Viral RNA was extracted using the QiaAmp Viral RNA Isolation Kit (Qiagen, Valencia, CA) according to manufacturer's instructions with slight modifications: Plasma samples (280 μl) were lysed in buffer AVL (1,120 μl) (Qiagen) for 10 minutes at room temperature in the presence of carrier RNA (10 μg/ml) and an external Kanamycin (KAN) RNA spike. Equal amounts of the external RNA spike (10^9 copies RNA /280 μl plasma), corresponding to the 1.2 kb KAN gene (Promega, Madison, WI), was used to normalize plasma volumes between samples and to correct for sample loss from viral RNA extraction and cDNA synthesis. An on-column DNase/ RNase free (Qiagen) incubation step for 10 minutes at room temperature was added to remove residual cellular DNA. […]
# [2] = target: T1, FIV-C protease mutant H72R (HIV63L) (Feline immunodeficiency virus, UniProt P16088, H110R); test: Inhibitor constant (Ki) of TL-3 against mutant FIV-C protease H72R; format: biochemical; settings: PR mutation H72R (HIV63L), cat 231
# T1 construct: adds a stop codon and a Hind III restriction site to the C-terminus of the protease; Met-Ala N-terminal extension (printed 'methionine, and alkaline'; the primer codes ATG GCA) (N); made in house; host or cells: E. coli Rosetta pLysS, pET21a
# Excerpt: (§2) Complementary DNA (cDNA) was synthesized from isolated plasma viral RNA of infected cats. […] The amplified PCR product was gel purified and cloned into pCR-TOPOII vector (Invitrogen, Carlsbad, CA) for sequencing. Selected DNA of mutants, N55D, H72R, D105G, and M107R were digested with Nde I/Hind III and ligated into pET21a expression vector (Novagen). The mutant FIV-C proteases were expressed in Rosetta pLysS cells (Novagen) and purified as previously described.
# (§3) Enzyme kinetics of FIV-C protease were assayed on the flourogenic substrate Arg-Ala-Leu-Thr-Lys(Abz)-Val-Gln/Phe(NO2)-Val-Gln-Ser-Lys-Gly-Arg-NH2. […] Inhibitor constant (Ki) of TL-3 against mutant FIV-C protease was analyzed as described.
# [3] = Tolerability of oral TL-3 in uninfected control cats; format: in vivo, cat; settings: TL-3 treated controls, 20 mg then 40 mg oral every eight hours
# Protocol: as §1
# [4] = test system: SIV (simian immunodeficiency virus); parameters: method as in PMID 9448264; settings: cited from earlier work
# [5] = target: FIV-C protease mutant D105G (HIV88N) (Feline immunodeficiency virus, UniProt P16088, D143G)
# Excerpt: as §2, §3
# [6] = target: wild-type FIV-C protease; test: Inhibitor constant (Ki) of TL-3 against wild-type FIV-C protease, fluorogenic substrate; format: biochemical, feline immunodeficiency virus (FIV-C); settings: wildtype PR
# Excerpt: as §2, §3
# [7] = test system: HIV-1; parameters: method as in PMID 9448264; settings: cited from earlier work
# [8] = target: T2, FIV-C protease mutant N55D (HIV46M) (Feline immunodeficiency virus, UniProt P16088, N93D); test: Inhibitor constant (Ki) of TL-3 against mutant FIV-C protease N55D; format: biochemical; settings: PR mutation N55D (HIV46M), cat 231
# T2 construct: adds a stop codon and a Hind III restriction site to the C-terminus of the protease; Met-Ala N-terminal extension (printed 'methionine, and alkaline'; the primer codes ATG GCA) (N); made in house; host or cells: E. coli Rosetta pLysS, pET21a
# Excerpt: as §2, §3
# [9] = test system: FIV; parameters: method as in PMID 9448264; settings: cited from earlier work
# [10] = test system: FIV-PPR; settings: FIV-PPR infected cats; cited from earlier work
smiles,measurement,setting,value
CC(C)[C@H](NC(=O)[C@H](C)NC(=O)OCc1ccccc1)C(=O)N[C@@H](Cc1ccccc1)[C@@H](O)[C@H](O)[C@H](Cc1ccccc1)NC(=O)[C@@H](NC(=O)[C@H](C)NC(=O)OCc1ccccc1)C(C)C [TL-3],animals that had lost weight,"[1]; 6 weeks post infection, + TL-3 cohort, three also in -TL-3 cohort",three
same,animals that required euthanasia,"[1]; TL-3 treated group, of six euthanized, four from untreated cohort",two
same,average (peak) viral loads vs untreated animals,"[1]; acute phase, did not reach statistical significance",lower
same,animals showing clinical signs of debilitating acute phase disease,"[1]; by week 6 post infection, TL-3 treated groups, of seven affected, four untreated",three
same,prevention of viremia,"[1]; oral monotherapy, high dose FIV-C",did not prevent viremia
same,"plasma viremia, TL-3 treated vs untreated cohorts",[1]; week 2 post infection,little differences in viral loads
same,animals with viral loads below detection limits,"[1]; week 8 post infection, surviving TL-3 treated cats, oral 20 mg every eight hours, untreated: one of six",four of 8 and half
same,Ki,[2],10.9 nM
same,adverse effects,[3],No adverse effects
same,inhibition of infection in vitro,[4],inhibits
same,resistance against TL-3 relative to wild type protease,[5]; D105G mutant vs wild type FIV-C protease,5 fold
same,Ki,"[5]; read-out: Ki vs TL-3, PR mutation D105G (HIV88N), cloned from cats 231 and 222",47.3 nM
same,Ki,[6],9.9 nM
same,inhibition of infection in vitro,[7],inhibits
same,Ki,[8],9.1 nM
same,inhibition of infection in vitro,[9],inhibits
same,effect on delays in brainstem auditory evoked potentials (BAEPs),[10],could reverse this effect
same,effect on neurologic alterations in the CNS,[10],significant protective effect
same,plasma viral loads,[10],lowered plasma viral loads

# Reference: article PMC535546, “Assessment of FIV-C infection of cats as a function of treatment with the protease inhibitor, TL-3” (Retrovirology, 2004)
